# Read-outs that look alike come from different tables or passages of the source.
# How the values were obtained:
# adult mongrel dogs [1] = test: Acute in vivo cardiotonic activity in anesthetized dogs; design: species or system mongrel dog; conditions: Canis lupus familiaris, iv, relative to controls; for change in vivo at 0.375 mg/kg: dose 0.375 mpk; for change in vivo at 0.875 mg/kg: dose 0.875 mpk; for change in vivo at 1.87 mg/kg: dose 1.87 mpk
# Procedure: The acute in vivo cardiotonic activity of compounds prepared according to the present invention was determined according to a modification of the procedure described by Alousi et al., Circ.
# In particular, adult mongrel dogs were anesthetized with sodium pentobarbital and were artificially respired. Arterial pressure was monitored via a femoral artery, and the pulse pressure was used to trigger a cardiotachometer for heart rate. Left ventricular pressure was determined with a Millar catheter, and dP/dT (the change in ventricular pressure with time) was derived. Cardiac output was determined by measuring ascending aortic blood flow with an electromagnetic flow probe, and myocardial contractile force was measured with a Walton Brodie strain gauge sutured to the right ventricle. Lead II EKG was also recorded.
# A standard dose (10 μg/kg/min) of dopamine was administered to assess myocardial responsiveness.
# Compounds of the invention were administered by intravenous infusion and the effects on cardiovascular parameters were determined.
# adult mongrel dogs [2] = test: Renal vasodilating activity in anesthetized dogs; format: in vivo, mongrel dog; conditions: Canis lupus familiaris
# Procedure: Goldberg et al., J. Pharmacol. Exp. Ther., 163, 188 (1968), performed an investigation of the structural requirements for dopamine-like renal vasodilation of phenethylamines and apomorphine. The following procedure is a variation of the assay described in that report.
# Adult mongrel dogs were anesthetized and surgically prepared for electromagnetic measurement of renal artery blood flow. A carotid artery was cannulated for measuring arterial blood pressure and drugs were administered intravenously or intraarterially (via the renal artery). Heart rate was monitored with a cardiotachometer. Renal vascular resistance was calculated as the ratio of mean arterial blood pressure to renal artery blood flow. Dopamine was infused intravenously at 3 μg/kg/min for ten minutes (at an infusion rate of about 1 ml/min) to determine responsiveness of each dog to renal dopamine receptor stimulation. Cumulative dose-response data were obtained by infusing a compound of this invention at progressively increasing (usually three-fold) infusion rates, each dose being infused for five minutes. The maximum percent change from pre-drug control in renal artery blood flow (or in renal vascular resistance) was determined for each infusion dose.
# RBF, RVR, MABP, and HR values are percent changes in renal blood flow, renal vascular resistance, mean arterial blood pressure, and heart rate, respectively, relative to control values.
# [3] = read-out: CF: percent change in cardiac force
# [4] = read-out: HR: percent change in heart rate
# [5] = read-out: MABP: percent change in mean arterial blood pressure
# [6] = read-out: dP/dT: maximum percent change in left ventricular pressure with time
# [7] = dose 6.2 mpk, relative to controls, read-out: HR: percent change in heart rate
# [8] = dose 6.2 mpk, relative to controls, read-out: RBF: percent change in renal blood flow
# [9] = dose 6.2 mpk, relative to controls, read-out: RVR: percent change in renal vascular resistance
# [10] = read-out: HR: percent change in heart rate, dose 6.2 mpk, relative to controls
# [11] = read-out: MABP: percent change in mean arterial blood pressure, dose 6.2 mpk, relative to controls
# [12] = read-out: RVR: percent change in renal vascular resistance, dose 6.2 mpk, relative to controls
# [13] = dose 6.2 mpk, relative to controls, read-out: MABP: percent change in mean arterial blood pressure
Structure (SMILES),change in vivo at 1.87 mg/kg (adult mongrel dogs [1]; [3]) [%],change in vivo at 1.87 mg/kg (adult mongrel dogs [1]; [4]) [%],change in vivo at 1.87 mg/kg (adult mongrel dogs [1]; [5]) [%],change in vivo at 1.87 mg/kg (adult mongrel dogs [1]; [6]) [%],further results
CCOc1cc2c(C)nc(OC(=O)CC)c([N+](=O)[O-])c2cc1OC [Cmpd 4],–,–,–,–,change in vivo at 0.375 mg/kg (adult mongrel dogs [1]; [3]): 100%; change in vivo at 0.375 mg/kg (adult mongrel dogs [1]; [4]): 7%; change in vivo at 0.375 mg/kg (adult mongrel dogs [1]; [5]): -25%; change in vivo at 0.375 mg/kg (adult mongrel dogs [1]; [6]): 46%
COc1cc2c(C)nc(OC(=O)c3ccccc3)c([N+](=O)[O-])c2cc1OC [Cmpd 7],–,–,–,–,change in vivo at 0.875 mg/kg (adult mongrel dogs [1]; [3]): 59%; change in vivo at 0.875 mg/kg (adult mongrel dogs [1]; [4]): 4%; change in vivo at 0.875 mg/kg (adult mongrel dogs [1]; [5]): -10%; change in vivo at 0.875 mg/kg (adult mongrel dogs [1]; [6]): 34%
CCOc1cc2c(C)nc(OC(=O)c3ccccc3)c([N+](=O)[O-])c2cc1OC [Cmpd 8],–,–,–,–,change in vivo at 0.375 mg/kg (adult mongrel dogs [1]; [3]): 124%; change in vivo at 0.375 mg/kg (adult mongrel dogs [1]; [4]): 10%; change in vivo at 0.375 mg/kg (adult mongrel dogs [1]; [5]): -20%; change in vivo at 0.375 mg/kg (adult mongrel dogs [1]; [6]): 54%
COc1cc2c(C)nc(OC(=O)C(C)(C)C)c([N+](=O)[O-])c2cc1OC [Cmpd 12],70,14,-10,51,change in vivo at 6.2 mg/kg (adult mongrel dogs [2]; [7]): 12%; change in vivo at 6.2 mg/kg (adult mongrel dogs [2]; [8]): 38%; change in vivo at 6.2 mg/kg (adult mongrel dogs [2]; [9]): -26%
COc1cc2c(C)nc(OC(=O)N(C)C)c([N+](=O)[O-])c2cc1OC [Cmpd 13],49,6,-8,24,"change in vivo at 6.2 mg/kg (adult mongrel dogs [2]; [10]): 12%; change in vivo at 6.2 mg/kg (adult mongrel dogs [2]; [11]): -5%; change in vivo at 6.2 mg/kg (adult mongrel dogs [2]; read-out: RBF: percent change in renal blood flow, dose 6.2 mpk, relative to controls): 8%; change in vivo at 6.2 mg/kg (adult mongrel dogs [2]; [12]): -12%"
CCOc1cc2c([N+](=O)[O-])c(OC(=O)C(C)(C)C)nc(C)c2cc1OC [Cmpd 23],27,5,3,24,–
COc1cc2c(C)nc(OS(=O)(=O)N(C)C)c([N+](=O)[O-])c2cc1OC [Cmpd 25],49,5,12,61,change in vivo at 6.2 mg/kg (adult mongrel dogs [2]; [7]): 32%; change in vivo at 6.2 mg/kg (adult mongrel dogs [2]; [13]): -12%; change in vivo at 6.2 mg/kg (adult mongrel dogs [2]; [8]): 61%; change in vivo at 6.2 mg/kg (adult mongrel dogs [2]; [9]): -46%
"CCN(CC)C(=O)Oc1nc(C)c2cc(OC)c(OC)cc2c1[N+](=O)[O-] [Cmpd 27, 3-Diethylcarbamyloxy-6,7-dimethoxy-1-methyl-4-nitroisoquinoline]",87,46,17,41,change in vivo at 6.2 mg/kg (adult mongrel dogs [2]; [10]): 13%; change in vivo at 6.2 mg/kg (adult mongrel dogs [2]; [11]): -12%; change in vivo at 6.2 mg/kg (adult mongrel dogs [2]; [12]): -30%
"CCN(CC)c1c(OC(C)=O)nc(C)c2cc(OC)c(OC)cc12 [Cmpd 29, 3-Acetoxy-4-(N,N-diethylamino)-6,7-dimethoxy-1-methylisoquinoline 1/2 Hydrate]",79,13,6,58,–
COc1cc2c(C)nc(OC(=O)N(c3ccccc3)c3ccccc3)c(N)c2cc1OC [Cmpd 36],26,9,-1,26,–
COc1cc2c(C)nc(OC(=O)N(C)C)c(N)c2cc1OC [Cmpd 39],76,16,-1,73,–
CCCC(=O)Oc1nc(C)c2cc(OC)c(OC)cc2c1[N+](=O)[O-] [Cmpd 41],166,29,-34,62,–
CCCCNC(=O)Nc1c(OC(=O)N2CCNCC2)nc(C)c2cc(OC)c(OC)cc12 [Cmpd 80],–,–,–,–,"change in vivo at 1.2 mg/kg (adult mongrel dogs [2]; read-out: HR: percent change in heart rate, dose 1.2 mpk, relative to controls): 2%; change in vivo at 1.2 mg/kg (adult mongrel dogs [2]; read-out: MABP: percent change in mean arterial blood pressure, dose 1.2 mpk, relative to controls): 0%; change in vivo at 1.2 mg/kg (adult mongrel dogs [2]; read-out: RBF: percent change in renal blood flow, dose 1.2 mpk, relative to controls): 25%; change in vivo at 1.2 mg/kg (adult mongrel dogs [2]; read-out: RVR: percent change in renal vascular resistance, dose 1.2 mpk, relative to controls): -16%"
CCCCCC(=O)Nc1c(OC(=O)N(CC)CC)nc(C)c2cc(OC)c(OC)cc12 [Cmpd 81],–,–,–,–,change in vivo at 6.2 mg/kg (adult mongrel dogs [2]; [7]): -8%; change in vivo at 6.2 mg/kg (adult mongrel dogs [2]; [13]): 9%; change in vivo at 6.2 mg/kg (adult mongrel dogs [2]; [8]): 39%; change in vivo at 6.2 mg/kg (adult mongrel dogs [2]; [9]): -21%

# Source: patent US4880817A, “O-functionalized derivatives of substituted isoquinolin-3-ols having cardiotonic and/or phosphodiesterase fraction III inhibiting properties and/or renal vasodilating properties” (Ortho Pharmaceutical Corporation, priority 1987, dated 1989)
